Data from US7267718B2, “Pullulan film compositions” (Warner-Lambert Company, LLC, priority 2000, dated 2007).

Experiment: Pullulan film gliding performance, slanted plane test (smallest gliding angle of film-coated glass plates)
Type: physicochemical
Conditions: smaller angle = better
Protocol: […] The mixture is heated to 70° C. under stirring for complete solubilisation and then the stirring is reduced for defoaming. The solution then is used to cast on glass plates of 4 mm thickness to form pullulan films of about 100 μm thickness after drying at room conditions. The pullulan film gliding performance is evaluated by a test on a slanted plan, a method commonly used by gelatine producers. The method determines the smallest angle of inclination of glass plate to provoke the gliding of a film coated glass plate over another one with films face to face. Consequently, the smaller the gliding angle, the better the film gliding performance.

[1] = surfactant 500 ppm/pullulan, cast pullulan film about 100 μm with kappa-carrageenan and potassium acetate
[2] = surfactant 1000 ppm, cast pullulan film about 100 μm

Molecule | Pullulan gliding performance (°) [1] | Pullulan gliding performance (°) [2] | Pullulan gliding performance (°) (surfactant 5000 ppm, cast pullulan film about 100 μm)
Sorbitan oleate | 9 ° | 7 ° | –
Polysorbate 80 | 10 ° | 9 ° | –
Sorbitan laurate | 10 ° | 8 ° | –
Polysorbate 20 | 12 ° | 12 ° | –
CCCCCCCCCCCCOS(=O)(=O)[O-].[Na+] [SLS, sodium lauryl sulphate] | 9 ° | 5 ° | 6 °
